According to US10865207B2, “Compounds for imaging Tau protein aggregates” (AC IMMUNE S.A., priority 2016, dated 2020):

Assays:
[1] = PK studies in healthy mice (dynamic PET); type: in vivo, NMRI mice; parameters: Good brain uptake (grade) / Mouse PK Uptake (grade): key: −: poor; ∘: moderate; +: good; ++: very good; +++: excellent; details: for Mouse PK De-fluorination (grade) / Mouse PK Uptake (grade) / Mouse PK Washout (grade): Table 2; for bone uptake in shoulder joint at 60 min (de-fluorination) / peak uptake in brain (tracer uptake in healthy mice after iv injection) / ratio of uptake peak/30 min (washout from healthy brain): healthy mice; for bone uptake in shoulder joint at 60 min (de-fluorination): after iv injection; for peak uptake in brain (tracer uptake in healthy mice after iv injection): PET; for ratio of uptake peak/30 min (washout from healthy brain): Table 1: ratio of uptake at 2 min and 30 min; for Fast washout from healthy brain (grade): key: −: poor; ∘: moderate; +: good; ++: very good; +++: excellent; for Mouse PK De-fluorination (grade): key: −: poor; ∘: moderate; +: good; ++: very good; +++: excellent; for Mouse PK Washout (grade): key: −: poor; ∘: moderate; +: good; ++: very good; +++: excellent
Procedure: NMRI mice (weight range 25-35 g) were injected intravenously with the ^18F-labeled compounds. Up to 150 μL of 1×PBS solution with 10%-15% EtOH or dilution medium ([…]) containing the ^18F-labeled compound (2-10 MBq) were injected. Anesthesia with isoflurane was induced before injection of the tracer and maintained during the image acquisition period. PET scans were performed using a SIEMENS INVEON small animal PET/CT scanner (Siemens, Knoxville, Tenn.). PET acquisition was started immediately before the radioactive dose was injected into the animal through the tail vein. Images were generated as dynamic scans for 60 minutes.
The peak uptake in the brain was set to 100% and washout curves were generated to evaluate the clearance of the activity from the normal brain (FIG. 2).

[2] = biological target: T1, MAO A (Mus musculus, UniProt Q64133); assay: MAO A 18F-FEH competition assay in mouse brain homogenate; type: binding; details: for low MAO A binding (grade): Table 2, IC50 in mouse brain homogenate
T1 construct: from tissue; host or cells: whole mouse brain homogenate
T1 sequence (Q64133 1-526): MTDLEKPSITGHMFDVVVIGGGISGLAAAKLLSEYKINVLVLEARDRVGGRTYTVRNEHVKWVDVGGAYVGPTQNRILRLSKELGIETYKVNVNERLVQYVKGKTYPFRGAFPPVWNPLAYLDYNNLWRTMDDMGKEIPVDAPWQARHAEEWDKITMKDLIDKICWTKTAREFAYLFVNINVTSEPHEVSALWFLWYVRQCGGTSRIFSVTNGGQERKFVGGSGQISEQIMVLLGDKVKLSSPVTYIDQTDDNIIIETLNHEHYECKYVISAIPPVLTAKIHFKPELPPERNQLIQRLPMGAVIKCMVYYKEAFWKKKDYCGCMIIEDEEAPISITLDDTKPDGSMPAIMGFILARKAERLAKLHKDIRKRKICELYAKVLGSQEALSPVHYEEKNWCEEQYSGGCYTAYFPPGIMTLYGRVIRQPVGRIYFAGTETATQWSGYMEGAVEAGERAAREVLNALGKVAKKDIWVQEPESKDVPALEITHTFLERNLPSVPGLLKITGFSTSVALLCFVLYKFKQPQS

[3] = biological target: Tau (Homo sapiens, UniProt P10636); assay: Competition binding to Tau in human AD brain homogenate with 18F-labeled Tau binder; details: for binding affinity for Tau (in words): IC50 determined in AD brain homogenate; for high Tau binding (grade): Table 2, fluorine-19 derivatives; for high Tau binding (grade): key: −: poor; ∘: moderate; +: good; ++: very good; +++: excellent
Chain of Tau (P10636 623-708 limits assumed): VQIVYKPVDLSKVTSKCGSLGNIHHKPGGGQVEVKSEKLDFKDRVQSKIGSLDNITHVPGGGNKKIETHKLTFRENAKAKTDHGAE
Procedure: 20 μg of human Alzheimer disease brain homogenate was incubated with a dilution series of each test compound (1000 to 0.06 nM) in the presence of 800 Bq of ^18F-labeled Tau binder. The samples were shaken at 110 rpm for 45 min at 37° C. Samples were then filtered through GF/B 96 well filter plates and washed twice with 300 μL assay buffer (PBS containing 0.1% BSA and 2% DMSO). Thereafter, filter plates were sealed and a Fuji Film Imaging Plate (BAS-SR2025) was placed on top. The imaging plate was analyzed after overnight exposition using a Fuji Film BAS-5000. Non-specific signal was determined with samples containing ^18F-labeled Tau-reference binder in the presence of assay buffer without brain substrate and competitor. […] The unblocked ^18F-labeled Tau-binder signal was defined as total binding. IC50 values were calculated by Prism V6 (GraphPad) setting total binding to 100%.

Row | Mouse PK De-fluorination (grade) [1] | Mouse PK Uptake (grade) [1] | Mouse PK Washout (grade) [1] | bone uptake in shoulder joint at 60 min (de-fluorination) [1] | peak uptake in brain (tracer uptake in healthy mice after iv injection) [1] | ratio of uptake peak/30 min (washout from healthy brain) [1] | low MAO A binding (grade) [2] | binding affinity for Tau (in words) [3] | high Tau binding (grade) [3] | selectivity over MAO A (in words) [2] | Fast washout from healthy brain (grade) ([1]; Table 1) | Good brain uptake (grade) ([1]; Table 1) | Low or minor de-fluorination (grade) ([1]; Table 1) | De-fluorination in mice (in words) ([1]; mouse, in vivo) | Low retention in healthy brain (grade) ([1]; Table 1) | SMILES
1 | + | ++ | + | (2.9% ID/g) | (5.3% ID/g) | (9.6) | +++ | inferior | ++ |  |  |  |  |  |  | Fc1cncc(-c2ccc3c(n2)[nH]c2ccncc23)c1 [Comparative Example 5 (F-5)]
2 | − | +++ |  | (11.1% ID/g) | (8.5% ID/g) | (7.0) | + | inferior | ++ | Inferior |  |  |  |  |  | Fc1cccc(-c2ccc3c(n2)[nH]c2ccncc23)n1 [Comparative Example 7 (F-7)]
3 |  |  |  |  |  |  | +++ | inferior | ++ |  |  |  |  |  |  | Fc1ccnc(-c2ccc3c(n2)[nH]c2ccncc23)c1 [Comparative Example 9 (F-9)]
4 |  |  |  |  |  |  |  |  | +++ | Inferior |  |  |  |  |  | Fc1ccc(-c2ccc3c(n2)[nH]c2ccncc23)nc1 [Comparative Example 8 (F-8)]
5 |  |  |  |  |  |  |  |  |  |  | + | ++ | − | De-fluorination in mice was found |  | [18F]c1ccc(-c2ccc3c(n2)[nH]c2ccncc23)cn1 [Compound ^18F-2]
6 |  | +++ | ++ | (4.8% ID/g) | (8.2% ID/g) | (14.5) | +++ | poor | − |  |  |  |  |  |  | Fc1ccncc1-c1ccc2c(n1)[nH]c1ccncc12 [Comparative Example 6 (F-6)]
7 |  |  |  |  |  |  |  |  |  |  |  | ++ |  |  | − | [18F]c1ccc(-c2ccc3c(c2)[nH]c2ccncc23)cn1 [Compound ^18F-1]
8 | − | ++ | ++ | (6.2% ID/g) | (5.7% ID/g) | (10.9) | + |  | +++ | Inferior |  |  |  |  |  | Fc1ccc(-c2ccc3c(n2)[nH]c2ccncc23)cn1 [Compound F-2]

Row | SMILES | Mouse PK De-fluorination (grade) [1] | Mouse PK Uptake (grade) [1] | Mouse PK Washout (grade) [1] | bone uptake in shoulder joint at 60 min (de-fluorination) [1] | peak uptake in brain (tracer uptake in healthy mice after iv injection) [1] | ratio of uptake peak/30 min (washout from healthy brain) [1] | low MAO A binding (grade) [2] | binding affinity for Tau (in words) [3] | high Tau binding (grade) [3] | selectivity over MAO A (in words) [2] | Fast washout from healthy brain (grade) ([1]; Table 1) | Good brain uptake (grade) ([1]; Table 1) | Low or minor de-fluorination (grade) ([1]; Table 1) | De-fluorination in mice (in words) ([1]; mouse, in vivo) | Low retention in healthy brain (grade) ([1]; Table 1)
9 | Fc1cccnc1-c1ccc2c(n1)[nH]c1ccncc12 [Comparative Example 10 (F-10)] | − |  | − | (6.2% ID/g) | (2.1% ID/g) | (3.6) | +++ | poor | − |  |  |  |  |  | 
